Measurements from patent publication EP2388023A1, “Composites on a basis of bioceramics and biodegradable or non biodegradable polymers, containing antibiotics for tissue restitution and products therefrom” (Universidade Federal de Minas Gerais, priority 2006, dated 2007).
Read-outs that look alike come from different tables or passages of the source.

Test system: dentine-pulp complex of rats
Protocol: The objective of this study was to check the inflammatory response of the pulp tissue and dentine tissue formation in rats after the use of composites made from hydroxiapatite as compared to the use of […] (CETEA 143/04). The composites were prepared and sterilized with ethylene oxide, following the procedures described previously. 36 six-week-old rats (Rattus norvergicus) of the Wistar lineage, weighing between 250 and 300g were used in this investigation.
The animals were placed in […] groups: (1) Calcium hydroxide; (2) Bioceramics HA and PLGA; (3) Negative control within four periods of time (1, 7. 15 and 30 days). The animals received an intraperitoneal anesthetic injection of 10 ml Ketamine 10% and 7.5 ml Xilazine 10% (body weight: 0.1ml/100g).
A cavity in the first upper molar oclussal face of the animals was made using a spherical drill n. 1/4 (ISO Maillefer), in total isolation, with water refrigeration and low rotation, keeping the animal in adequate equipment. No additional retention was supplied for the preparation of the cavity. Cavities and exposures were carefully cleaned with cotton balls and distilled water during four minutes. After being sacrificed, the animals underwent the histological processing of their teeth performed with the use of hematoxilin-eosin followed by a qualitative and quantitative histological analysis. The data was subjected to a ANOVA Test statistical analysis. The dentine bridge was measured with a 60-micrometer reticle.

[Ca+2].[OH-].[OH-] [group (1), Calcium hydroxide]
inflammatory response of the pulp tissue (after seven days): necrosed areas and a mild acute inflammatory process
inflammatory response of the pulp tissue (from the fourteenth day on): mild chronic infiltrate
formation of hard tissue (onset, periods 1, 7, 15 and 30 days): around the thirtieth day
